# Values quoted from earlier work, collected in patent US12016851B2, “Modified release pharmaceutical formulations comprising deferiprone” (Chiesi Farmaceutici S.p.A., priority 2022, dated 2024).
# What was measured:
# [1] = monotherapy; Maggio 2002, Galanello 2006
# [2] = in vivo
structure (smiles),measurement,setting,value
"Cc1c(O)c(=O)ccn1C [Deferiprone, 3-hydroxy-1,2-dimethylpyridin-4-one]",improving myocardial siderosis and cardiac function,[1],superior to deferoxamine monotherapy
same,half-life,[2],2 to 3 h
